From ChEMBL document CHEMBL1157163, “In vitro permeability and metabolic stability of bile pigments and the effects of hydrophilic and lipophilic modification of biliverdin” (Bioorg Med Chem, 2008)

What was measured:
[1] = Apparent permeability across human Caco-2 cells; type: ADME, cell-based
[2] = Apparent permeability across human Caco-2 cells in presence of BSA in basolateral chamber; type: ADME, cell-based
Caco-2 = test: Metabolic stability in human Caco-2 cell homogenate; type: ADME, cell-based
[3] = Metabolic stability in presence of BSA; type: ADME
[4] = Toxicity against rat erythrocytes assessed as hemolysis upto 1000 uM; type: cell-based; settings: erythrocyte
[5] = Toxicity against rat erythrocytes assessed as hemolysis upto 1000 uM in presence of BSA; type: cell-based; settings: erythrocyte
[6] = Toxicity against rat erythrocytes assessed as induction of hemolysis at >= 1000 uM; type: cell-based; settings: erythrocyte
[7] = Toxicity against rat erythrocytes assessed as decrease in hemolysis in presence of BSA; type: cell-based; settings: erythrocyte

Papp [1] [×10⁻⁶ cm/s]	Papp [2] [×10⁻⁶ cm/s]	Stability (Caco-2)	Stability [3]	Structure (SMILES)	Activity [4]	Activity [5]	Activity [6]	Activity [7]
0.39	3.52	Stable	Stable	C=CC1=C(C)/C(=C/c2[nH]c(Cc3[nH]c(/C=C4\NC(=O)C(C)=C4C=C)c(C)c3CCC(=O)NCCS(=O)(=O)O)c(CCC(=O)NCCS(=O)(=O)O)c2C)NC1=O [BILIRUBIN DITAURATE]	Non-toxic	Non-toxic	–	–
0.02	1.04	–	0.33 %/min	C=CC1=C(C)/C(=C/c2[nH]c(Cc3[nH]c(/C=C4\NC(=O)C(C)=C4C=C)c(C)c3CCC(=O)O)c(CCC(=O)O)c2C)NC1=O [BILIRUBIN]	–	–	Toxic	Non-toxic
–	–	Stable	Stable	C=CC1=C(C)/C(=C/C2=NC(=C\c3[nH]c(/C=C4\NC(=O)C(C)=C4C=C)c(C)c3CCC(=O)N[C@H]3C(O)O[C@H](CO)[C@@H](O)[C@@H]3O)/C(CCC(=O)N[C@@H]3C(O)O[C@@H](CO)[C@H](O)[C@H]3O)=C2C)NC1=O (some centres undefined) [BILIVERDIN DIGLUCOSAMINE]	–	–	–	–
1.01	3.7	Stable	Stable	C=CC1=C(C)/C(=C/C2=NC(=C\c3[nH]c(/C=C4\NC(=O)C(C)=C4C=C)c(C)c3CCC(=O)O)/C(CCC(=O)O)=C2C)NC1=O [BILIVERDIN]	Non-toxic	Non-toxic	–	–
